In general, mortality refers to the share of the test organisms that died.

Common to all, as to assay type: in vivo
The subject of experiment [1] is yellow fever mosquito (Aedes aegypti). In words: whole plant or invertebrate. Particulars: 48 h, larval mortality visually assessed after 2 days, read-out: mortality in comparison with untreated controls. As to the method: For evaluating control of yellow fever mosquito (Aedes aegypti) the test unit consisted of 96-well-microtiter plates containing 200 μl of tap water per well and 5-15 freshly hatched A. aegypti larvae.
The active compounds or mixtures were formulated using a solution containing 75% (v/v) water and 25% (v/v) DMSO. Different concentrations of formulated compounds or mixtures were sprayed onto the insect diet at 2.5 μl, using a custom built micro atomizer, at two replications. For experimental mixtures in these tests identical volumes of both mixing partners at the desired concentrations respectively, were mixed together.
After application, microtiter plates were incubated at 28±1° C., 80±5% RH for 2 days. Larval mortality was then visually assessed.

For experiment [2], the system named is Orchid Thrips (Dichromothrips corbetti). Put plainly: Action on orchid thrips, floral-immersion technique. Particulars: adult thrips, 72 hours after treatment, read-out: mortality in comparison with untreated controls. As for the experimental part:
Dichromothrips corbetti adults used for bioassay were obtained from a colony maintained continuously under laboratory conditions. For testing purposes, the test compound is diluted in a 1:1 mixture of acetone:water (vol:vol), plus Kinetic® HV at a rate of 0.01% v/v.
Thrips potency of each compound was evaluated by using a floral-immersion technique. All petals of individual, intact orchid flowers were dipped into treatment solution and allowed to dry in Petri dishes. Treated petals were placed into individual re-sealable plastic along with about 20 adult thrips. All test arenas were held under continuous light and a temperature of about 28° C. for duration of the assay. After 3 days, the numbers of live thrips were counted on each petal. The percent mortality was recorded 72 hours after treatment.

In experiment [3] the test system is boll weevil (Anthonomus grandis). In words: Action on boll weevil, eggs on insect diet in 96-well microtiter plates. Particulars: 120 h, egg and larval mortality after 5 days, read-out: mortality in comparison with untreated controls. As to the method:
For evaluating control of boll weevil (Anthonomus grandis) the test unit consisted of 96-well-microtiter plates containing an insect diet and 5-10 A. grandis eggs.
The compounds were formulated using a solution containing 75% (v/v) water and 25% (v/v) DMSO. Different concentrations of formulated compounds were sprayed onto the insect diet at 5 μl, using a custom built micro atomizer, at two replications.
After application, microtiter plates were incubated at about 25+1° C. and about 75+5% relative humidity for 5 days. Egg and larval mortality was then visually assessed.

In experiment [4] the test system is tobacco budworm (Heliothis virescens). In words: Action on tobacco budworm, eggs on insect diet in 96-well microtiter plates. The settings on record: 120 h, egg and larval mortality after 5 days, read-out: mortality in comparison with untreated controls. As to the method: For evaluating control of tobacco budworm (Heliothis virescens) the test unit consisted of 96-well-microtiter plates containing an insect diet and 15-25 H. virescens eggs.
The compounds were formulated using a solution containing 75% v/v water and 25% v/v DMSO. Different concentrations of formulated compounds were sprayed onto the insect diet at 10 μl, using a custom built micro atomizer, at two replications.
After application, microtiter plates were incubated at about 28+1° C. and about 80+5% relative humidity for 5 days. Egg and larval mortality was then visually assessed.

Experiment [5] has as its system Diamond Back Moth (Plutella xylostella). Put plainly: Action on diamond back moth, cabbage leaf dip. Particulars: foliar, 3rd instar larvae, 72 hours after treatment, read-out: mortality in comparison with untreated controls. As to the method: The active compound is dissolved at the desired concentration in a mixture of 1:1 (v/v) distilled water:acetone. Surfactant (Kinetic® HV) is added at a rate of 0.01% (v/v). The test solution is prepared at the day of use.
Leaves of cabbage were dipped in test solution and air-dried. Treated leaves were placed in petri dishes lined with moist filter paper and inoculated with ten 3rd instar larvae. Mortality was recorded 72 hours after treatment. Feeding damages were also recorded using a scale of 0-100%.

In experiment [6] the test system is Southern Armyworm (Spodoptera eridania), 2nd Instar Larvae. Put plainly: Action on southern armyworm, sprayed lima bean plants. The settings on record: 96 h, 2nd instar larvae on lima bean, 4 days after treatment, read-out: mortality in comparison with untreated controls. As to the method:
The active compounds were formulated by a Tecan liquid handler in 100% cyclohexanone as a 10,000 ppm solution supplied in tubes. The 10,000 ppm solution was serially diluted in 100% cyclohexanone to make interim solutions. These served as stock solutions for which final dilutions were made by the Tecan in 50% acetone:50% water (v/v) into 10 or 20 ml glass vials. A nonionic surfactant (Kinetic®) was included in the solution at a volume of 0.01% (v/v). The vials were then inserted into an automated electrostatic sprayer equipped with an atomizing nozzle for application to plants/insects.
Lima bean plants (variety Sieva) were grown 2 plants to a pot and selected for treatment at the 1st true leaf stage. Test solutions were sprayed onto the foliage by an automated electrostatic plant sprayer equipped with an atomizing spray nozzle. The plants were dried in the sprayer fume hood and then removed from the sprayer. Each pot was placed into perforated plastic bags with a zip closure. About 10 to 11 armyworm larvae were placed into the bag and the bags zipped closed. Test plants were maintained in a growth room at about 25° C. and about 20-40% relative humidity for 4 days, avoiding direct exposure to fluorescent light (24 hour photoperiod) to prevent trapping of heat inside the bags. Mortality and reduced feeding were assessed 4 days after treatment, compared to untreated control plants.

For `C/N=C(/c1nn(C)c2cc(/C=N/NC(=S)Nc3ccccc3C(C)C)ccc12)N(C)c1ccc(OC(F)(F)F)cc1` [Example C-3, 1-[(E)-[3-[(Z)—N,N′-dimethyl-N-[4-(trifluoromethoxy)phenyl]carbamimidoyl]-1-methyl-indazol-6-yl]methyleneamino]-3-(2-isopropylphenyl)thiourea], the mortality at 800 ppm is no less than 50% in experiment [1], no less than 75% in experiment [3] and no less than 75% in experiment [4]. For the same compound, the mortality at 500 ppm in experiment [2] and in experiment [5] was no less than 75% each time.
Consider `CON=C(Nc1ccc(OC(F)(F)F)cc1)c1nn(C)c2cc(/C=N/N=C3\SC(=O)CN3c3ccccc3C(C)C)ccc12` [Example C-6, 6-[(E)-[(Z)-[3-(2-isopropylphenyl)-5-oxo-thiazolidin-2-ylidene]hydrazono]methyl]-N′-methoxy-1-methyl-N-[4-(trifluoromethoxy)phenyl]indazole-3-carboxamidine], for which the mortality at 800 ppm in experiment [1] is no less than 50%; in experiment [3], no less than 75%; in experiment [4], no less than 75%. The mortality at 500 ppm in experiment [2] and in experiment [5] was no less than 75% each time. The mortality at 300 ppm in experiment [6] is no less than 75%.
As to `CC(C)c1ccccc1NC(=S)N/N=C/c1ccc2c(/C(N)=N/c3ccc(OC(F)(F)F)cc3)nsc2c1` [Example C-20, 1-(2-isopropylphenyl)-3-[(E)-[3-[(Z)—N′-[4-(trifluoromethoxy)phenyl]carbamimidoyl]-1,2-benzothiazol-6-yl]methyleneamino]thiourea], the mortality at 800 ppm is no less than 50% in experiment [1], no less than 75% in experiment [3] and no less than 75% in experiment [4]. The mortality at 500 ppm in experiment [2] and in experiment [5] was no less than 75% each time.
As to `CC(C)c1ccccc1N1C(=O)CS/C1=N\N=C\c1ccc2c(C(N)=Nc3ccc(OC(F)(F)F)cc3)nsc2c1` [Example C-21, 6-[(E)-[(Z)-[3-(2-isopropylphenyl)-4-oxo-thiazolidin-2-ylidene]hydrazono]methyl]-N′[4-(trifluoromethoxy)phenyl]-1,2-benzothiazole-3-carboxamidine], the figures for the mortality at 800 ppm in experiment [1], in experiment [3] and in experiment [4] were no less than 50%, no less than 75% and no less than 75%, respectively. Besides, the mortality at 500 ppm in experiment [2] and in experiment [5] was no less than 75% in each case. In experiment [6], the mortality at 300 ppm is no less than 75%.
For `CC(C)c1ccccc1NC(=S)N/N=C/c1ccc2c(/C=N/c3ccc(OC(F)(F)F)cc3)nn(C)c2c1` [Example C-24, 1-(2-isopropylphenyl)-3-[(E)-[1-methyl-3-[(E)-[4-(trifluoromethoxy)phenyl]iminomethyl]indazol-6-yl]methyleneamino]thiourea], the mortality at 800 ppm in experiment [1] was no less than 50%; in experiment [4], no less than 75%. Further, the mortality at 500 ppm in experiment [5] is no less than 75%.
Take `CC(C)c1ccccc1N1C(=O)CS/C1=N\N=C\c1ccc2c(/C=N/c3ccc(OC(F)(F)F)cc3)nn(C)c2c1` [Example C-25, (2Z)-3-(2-isopropylphenyl)-2-[(E)-[1-methyl-3-[(E)-[4-(trifluoromethoxy)phenyl]iminomethyl]indazol-6-yl]methylenehydrazono]thiazolidin-4-one]: in experiment [4], the mortality at 800 ppm was no less than 75%. For the same compound, the mortality at 500 ppm in experiment [5] is no less than 75%.
For the compound `CC(C)c1ccccc1NC(=S)N/N=C/c1ccc2c(C(=N)Nc3ccc(OC(F)(F)F)cc3)nn(C)c2n1` [Example C-26, 1-(2-isopropylphenyl)-3-[(E)-[1-methyl-3-[N-[4-(trifluoromethoxy)phenyl]carbamimidoyl]pyrazolo[3,4-b]pyridin-6-yl]methyleneamino]thiourea], the mortality at 800 ppm is no less than 50% in experiment [1], no less than 75% in experiment [3] and no less than 75% in experiment [4]. In addition, the mortality at 500 ppm in experiment [2] and in experiment [5] was no less than 75% each time. In experiment [6], the mortality at 300 ppm was no less than 75%.
`CC(C)c1ccccc1N1C(=O)CS/C1=N\N=C\c1ccc2c(C(=N)Nc3ccc(OC(F)(F)F)cc3)nn(C)c2n1` [Example C-27, 6-[(E)-[(Z)-[3-(2-isopropylphenyl)-4-oxo-thiazolidin-2-ylidene]hydrazono]methyl]-1-methyl-N-[4-(trifluoromethoxy)phenyl]pyrazolo[3,4-b]pyridine-3-carboxamidine]: the mortality at 800 ppm in experiment [1] was no less than 50%; in experiment [3], no less than 75%; in experiment [4] it was no less than 75%. In addition, the mortality at 500 ppm in experiment [2] and in experiment [5] was no less than 75% in each case. For the same compound, the mortality at 300 ppm in experiment [6] is no less than 75%.
Take `CC(C)c1ccccc1N1CCS/C1=N\N=C\c1ccc2c(C(=N)Nc3ccc(OC(F)(F)F)cc3)nn(C)c2c1` [Example C-36, 6-[(E)-[(Z)-[3-(2-isopropylphenyl)thiazolidin-2-ylidene]hydrazono]methyl]-1-methyl-N-[4-(trifluoromethoxy)phenyl]indazole-3-carboxamidine]: the mortality at 800 ppm in experiment [1] is no less than 50%; in experiment [3], no less than 75%; in experiment [4], no less than 75%. For the same compound, the mortality at 500 ppm in experiment [2] and in experiment [5] was no less than 75% each time.
Consider `CC(C)c1ccccc1N1CCCS/C1=N\N=C\c1ccc2c(C(=N)Nc3ccc(OC(F)(F)F)cc3)nn(C)c2c1` [Example C-37, 6-[(E)-[(Z)-[3-(2-isopropylphenyl)-1,3-thiazinan-2-ylidene]hydrazono]methyl]-1-methyl-N-[4-(trifluoromethoxy)phenyl]indazole-3-carboxamidine], for which the mortality at 800 ppm is no less than 50% in experiment [1], no less than 75% in experiment [3] and no less than 75% in experiment [4]. Further, the mortality at 500 ppm in experiment [2] and in experiment [5] was no less than 75% each time.

For the origin of these results see patent publication US11512054B2, “Pesticidal compounds” (BASF SE, priority 2017, dated 2022).
